Assay results as given in ChEMBL document CHEMBL3603754, “Mitochondria and DNA Targeting of 5,10,15,20-Tetrakis(7-sulfonatobenzo[b]thiophene) Porphyrin-Induced Photodynamic Therapy via Intrinsic and Extrinsic Apoptotic Cell Death” (J Med Chem, 2015).
Blank lines part the entries; values can stand above or below the compound they belong to. Active and inactive are the calls of the source. No cut-off for these calls is given here.

Assays:
[1] = test system: MCF7; assay: Photo-toxicity in human MCF7 cells treated for 24 hrs followed by irradiated with 660 nm of diode laser light at 50mW for 30 mins measured after 24 hrs by MTT assay; assay type: functional, cell-based; conditions: MCF7, light or radiation study
[2] = test system: MCF7; assay: Induction of mitochondrial membrane disruption in human MCF7 cells assessed as calcein-AM accumulation in mitochondria treated for 1 hr followed by irradiated with 660 nm of diode laser light at 50mW for 30 mins measured after 45 mins by fluorescence assay; assay type: functional, cell-based
[3] = test system: MCF7; assay: (§1) Induction of extrinsic apoptosis in human MCF7 cells assessed as increase of casepase-3 level at 6 uM treated for 1 hr followed by irradiated with 660 nm of diode laser light at 50mW for 30 mins measured after 45 mins using (z-DEVD)2-Magic Red by fluorescence assay in presence of caspase-8 inhibitor Z-IETD-FMK; assay type: functional, cell-based
[4] = test system: MCF7; assay: Induction of mitochondrial membrane disruption in human MCF7 cells assessed as calcein-AM accumulation in mitochondria at 1 to 3 uM treated for 1 hr followed by irradiated with 660 nm of diode laser light at 50mW for 30 mins measured after 45 mins by fluorescence assay; assay type: functional, cell-based
[5] = test system: MCF7; assay: Induction of extrinsic apoptosis in human MCF7 cells assessed as increase of casepase-3 level at 6 uM treated for 1 hr followed by irradiated with 660 nm of diode laser light at 50mW for 30 mins measured after 45 mins using (z-DEVD)2-Magic Red by fluorescence assay; assay type: functional, cell-based
[6] = test system: MCF7; assay: Cellular uptake in human MCF7 cells assessed as increase of intracellular fluorescence up to 60 mins using alexa fluor 488, phalloidin 488/525, mito-tracker 490/516 staining by fluorescence microscopic analysis; assay type: ADME, cell-based; conditions: mcf7, 1 h
[7] = test system: MCF7; assay: Induction of intrinsic apoptosis in human MCF7 cells assessed as increase of casepase-9 level at 3 to 5 uM treated for 1 hr followed by irradiated with 660 nm of diode laser light at 50mW for 30 mins measured after 45 mins using (Ac-LEHD)2-Rh110 by fluorescence assay in presence of caspase-2 inhibitor; assay type: functional, cell-based
[8] = test system: MCF7; assay: Induction of DNA fragmentation in human MCF7 cell nucleus treated at 5 uM followed by irradiated with 660 nm of diode laser light at 50mW for 30 mins by DNA ladder assay; assay type: functional, cell-based
[9] = Intracellular uptake in human MCF7 cell lysosomes at 10 uM after 4 hrs using Hoechst staining by fluorescence microscopic analysis; assay type: ADME, cell-based, Lysosome; conditions: mcf7, 4 h
[10] = test system: MCF7; assay: Induction of extrinsic apoptosis in human MCF7 cells assessed as increase of casepase-3 level at 5 uM treated for 1 hr followed by irradiated with 660 nm of diode laser light at 50mW for 30 mins measured after 45 mins using (z-DEVD)2-Magic Red by fluorescence assay; assay type: functional, cell-based
[11] = test system: MCF7; assay: Induction of extrinsic apoptosis in human MCF7 cells assessed as increase of casepase-3 level at 5 uM treated for 1 hr followed by irradiated with 660 nm of diode laser light at 50mW for 30 mins measured after 45 mins using (z-DEVD)2-Magic Red by fluorescence assay in presence of caspase-2 inhibitor; assay type: functional, cell-based
[12] = Intracellular uptake in human MCF7 cell nucleus at 10 uM after 4 hrs using Hoechst staining by fluorescence microscopic analysis; assay type: ADME, cell-based; conditions: mcf7, 4 h
[13] = test system: MCF7; assay: Induction of intrinsic apoptosis in human MCF7 cells assessed as increase of casepase-9 level at 3 to 5 uM treated for 1 hr followed by irradiated with 660 nm of diode laser light at 50mW for 30 mins measured after 45 mins using (Ac-LEHD)2-Rh110 by fluorescence assay; assay type: functional, cell-based
[14] = test system: MCF7; assay: Cellular uptake in human MCF7 cells assessed as increase of intracellular fluorescence after 20 mins using alexa fluor 488, phalloidin 488/525, mito-tracker 490/516 staining by fluorescence microscopic analysis; assay type: ADME, cell-based; conditions: mcf7, 20 min
[15] = test system: MCF7; assay: Induction of mitochondrial membrane disruption in human MCF7 cells assessed as calcein-AM accumulation in cytosol treated for 1 hr followed by irradiated with 660 nm of diode laser light at 50mW for 30 mins measured after 45 mins by fluorescence assay; assay type: functional, cell-based
[16] = Intracellular uptake in human MCF7 cell mitochondria at 10 uM after 4 hrs using Hoechst staining by fluorescence microscopic analysis; assay type: ADME; conditions: mcf7, 4 h
[17] = Intracellular uptake in human MCF7 cell F-actin filament at 10 uM after 4 hrs using Hoechst staining by fluorescence microscopic analysis; assay type: ADME, cell-based; conditions: mcf7, 4 h
[18] = test system: MCF7; assay: Cellular uptake in human MCF7 cells assessed as increase of intracellular fluorescence after 1 hr using alexa fluor 488, phalloidin 488/525, mito-tracker 490/516 staining by FACS analysis relative to control; assay type: ADME, cell-based; conditions: mcf7, 1 h
[19] = test system: MCF7; assay: Induction of extrinsic apoptosis in human MCF7 cells assessed as increase of casepase-3 level at 3 to 5 uM treated for 1 hr followed by irradiated with 660 nm of diode laser light at 50mW for 30 mins measured after 45 mins using (z-DEVD)2-Magic Red by fluorescence assay; assay type: functional, cell-based
[20] = test system: MCF7; assay: Dark toxicity in human MCF7 cells up to 40 uM after 24 hrs by MTT assay; assay type: cell-based; conditions: mcf7, 24 h
[21] = test system: MCF7; assay: Induction of ROS production in human MCF7 cells treated for 1 hr followed by irradiated with 660 nm of diode laser light at 50mW for 30 mins using DCFDA by fluorescence microscopic analysis; assay type: functional, cell-based
[22] = test system: MCF7; assay: as §1, with “(z-IETD)2-Rh110” for “(z-DEVD)2-Magic Red”; assay type: functional, cell-based
[23] = test system: MCF7; assay: Induction of extrinsic apoptosis in human MCF7 cells assessed as increase of […] level at 6 uM treated for 1 hr followed by irradiated with 660 nm of diode laser light at 50mW for 30 mins measured after 45 mins using (z-IETD)2-Rh110 by fluorescence assay; assay type: functional, cell-based
[24] = Intracellular uptake in human MCF7 cell mitochondria at 10 uM after 4 hrs using mitotracker green staining by fluorescence microscopic analysis; assay type: ADME; conditions: mcf7, 4 h

- Drug uptake [6]: Active
- Drug uptake [9]: Not Active
- Drug uptake [12]: Active
- Drug uptake [14]: Active
- Drug uptake [16]: Active
- Drug uptake [17]: Not Active
- fold change (FC) [18]: 3
- Drug uptake [24]: Active
Structure (SMILES): O=S(=O)([O-])c1cccc2cc(-c3c4nc(c(-c5cc6cccc(S(=O)(=O)[O-])c6s5)c5ccc([nH]5)c(-c5cc6cccc(S(=O)(=O)[O-])c6s5)c5nc(c(-c6cc7cccc(S(=O)(=O)[O-])c7s6)c6ccc3[nH]6)C=C5)C=C4)sc12.[Na+].[Na+].[Na+].[Na+]
- IC50 [1]: 5 µM
- Activity [2]: Dose-dependent effect
- Activity [3]: inactive
- Activity [4]: Active
- Activity [5]: Active
- Activity [7]: inactive
- Activity [8]: Active
- Activity [10]: Active
- Activity [11]: inactive
- Activity [13]: Active
- Activity [15]: Dose-dependent effect
- Activity [19]: Active
- Activity [20]: Non-toxic
- Activity [21]: Dose-dependent effect
- Activity [22]: inactive
- Activity [23]: Active

- Drug uptake [9]: Active
Structure (SMILES): O=S(=O)(O)c1ccc(-c2c3nc(c(-c4ccc(S(=O)(=O)O)cc4)c4ccc([nH]4)c(-c4ccc(S(=O)(=O)O)cc4)c4nc(c(-c5ccc(S(=O)(=O)O)cc5)c5ccc2[nH]5)C=C4)C=C3)cc1
- IC50 [1]: 11.8 µM
